Measurements from patent publication US6376666B1 (Nauchno-Issledovatelsky Institut Farmakologii Rossiiskoi …, priority 1994, dated 2002).

Columns and labels:
C57B1/6 mice = test: open-field test, C57B1/6 mice (active type of emotional-stress reaction); type: in vivo; details: i.p., doses that activate Balb/c mice
Method in brief: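 Male mice, 20-22 g, dosed i.p. in water 30 min before a 3-min open-field test after 1 min in darkness; peripheral, central, rearing and total activity plus defecations recorded; Student t-test. Anxiolysis read as Balb/c activation, sedation as C57B1/6 inhibition.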

cats = test: hemodynamics and activity of intact heart in cats under anesthesia; type: in vivo; details: for Cardiac volume, change from basal level / Heart rate, change from basal level / Mean blood flow accelaration (aortic), change from basal level / Mean blood pressure, change from basal level / Stroke volume, change from basal level: cats
Protocol: The effects of compounds on the hemodynamics and activity of intact heart were studied in cats under anesthesia. The experiments were carried out under conditions of open chest. The phase curve of aortic blood flow was the main index of cardiac activity. The compounds were administered i.v. in physiological solution. The t-Student' test was used to estimate the statistical significance.

adrenaline arrhythmia = adrenaline arrhythmia in concious rabbits; details: given 2 min before arrhythmogenic dose of adrenaline
Protocol: Adrenaline arrhythmia. The 0,1% solution of adrenaline hydrochloride was injected to the marginal ear's vein of rabbit weighing 2,5-3,0 kg at dose ranging 120-150 mcg/kg which induced cardiac rhythm disturbances of two types.
The tested compound was injected in 3 ml of distilled water 30 min after determination of arrhythmogenic dose of adrenaline and the ECG was recorded in 2nd standard lead. 2 min after administration of tested compound the arrhythmogenic dose of adrenaline was injected.

[1] = tested on: ventricular disturbances of heart rhythm; test: arrhythmia in concious dogs according to Harris; type: in vivo; details: for % ectopic contractions, change vs basal level / Heart rate, change vs basal level: 2 mg/kg i.v.
Protocol: The arrhythmia in concious dogs according to Harris. The experiments were conducted in mongrel dogs of either sex weighing 9-14 kg. Under anesthesia (40 mg/kg of nembutal i.v.) and artificial respiration the two-step occlusion of the left anterior descending coronary artery was performed. The constant ECG disturbances of the heart rhythm were recorded after 24 hours. […] T-Student' test was used for statistical calculation.

[2] = tested on: calcium chloride arrhythmia; test: calcium chloride arrhythmia in concious rats; type: in vivo
Protocol: In these experiments the outbred concious rats 180-200 g of weight were injected with 10% solution of calcium chloride in tail vein at dose range of 250-300 mg/kg.

[3] = 0.5 mg/kg i.v., after injection
[4] = 1.0 mg/kg i.v., after injection

Compound: CCOc1ccc2nc(SCCN(CC)CC)[nH]c2c1 [Compound IX, 2-[2-(Diethylamino)ethylthio]-5-ethoxybenz-imidazole]
- effect on locomotor activity of C57B1/6 mice in open-field test, in words (C57B1/6 mice): without any changes in locomotor activity
- effect on contractile function of heart, in words (cats; cats i.v., same doses as bradycardia): slightly enhanced the contractility of myocardium
- duration of bradycardia after administration (cats; cats i.v., VIII 1,0, IX 0,5 and 1,0, XX 1,0 and 2,0 mg/kg): 30 min
- effect on heart rate, in words (cats; cats i.v., VIII 1,0, IX 0,5 and 1,0, XX 1,0 and 2,0 mg/kg, XXIII 1.0, verapamil 0.5 mg/kg): expressed bradycardia
- Cardiac volume, change from basal level (cats; 0.5 mg/kg i.v., after 2 min): −3.5 ± 6.0%
- Heart rate, change from basal level (cats; 0.5 mg/kg i.v., after 2 min): −11.6 ± 2.8 %
- Mean blood flow accelaration (aortic), change from basal level (cats; 0.5 mg/kg i.v., after 2 min): +11.0 ± 8.8%
- Mean blood pressure, change from basal level (cats; 0.5 mg/kg i.v., after 2 min): +4.4 ± 4.7%
- Stroke volume, change from basal level (cats; 0.5 mg/kg i.v., after 2 min): +9.4 ± 6.5%
- Cardiac volume, change from basal level (cats; 0.5 mg/kg i.v., after 5 min): −1.7 ± 4.8%
- Mean blood flow accelaration (aortic), change from basal level (cats; 0.5 mg/kg i.v., after 5 min): +0.6 ± 4.9%
- Mean blood pressure, change from basal level (cats; 0.5 mg/kg i.v., after 5 min): −5.4 ± 2.3%
- Stroke volume, change from basal level (cats; 0.5 mg/kg i.v., after 5 min): +5.6 ± 5.6%
- Cardiac volume, change from basal level (cats; 0.5 mg/kg i.v., after 10 min): −4.2± 2.1%
- Heart rate, change from basal level (cats; 0.5 mg/kg i.v., after 10 min): −7.3 ± 1.6 %
- Mean blood flow accelaration (aortic), change from basal level (cats; 0.5 mg/kg i.v., after 10 min): +3.0 ± 4.0%
- Mean blood pressure, change from basal level (cats; 0.5 mg/kg i.v., after 10 min): −1.2 ± 3.6%
- Stroke volume, change from basal level (cats; 0.5 mg/kg i.v., after 10 min): +3.6 ± 3.0%
- Cardiac volume, change from basal level (cats; 0.5 mg/kg i.v., after 20 min): −6.1 ± 3.4%
- Heart rate, change from basal level (cats; 0.5 mg/kg i.v., after 20 min): −4.5 ± 2.2%
- Mean blood flow accelaration (aortic), change from basal level (cats; 0.5 mg/kg i.v., after 20 min): +5.6 ± 5.1%
- Mean blood pressure, change from basal level (cats; 0.5 mg/kg i.v., after 20 min): −4.1 ± 4.8%
- Stroke volume, change from basal level (cats; 0.5 mg/kg i.v., after 20 min): −0.7 ± 4.0%
- Cardiac volume, change from basal level (cats; 0.5 mg/kg i.v., after 30 min): −2.8 ± 7.8%
- Heart rate, change from basal level (cats; 0.5 mg/kg i.v., after 30 min): −5.3 ± 2.3%
- Mean blood flow accelaration (aortic), change from basal level (cats; 0.5 mg/kg i.v., after 30 min): +1.8 ± 5.8%
- Mean blood pressure, change from basal level (cats; 0.5 mg/kg i.v., after 30 min): −4.9 ± 6.5%
- Stroke volume, change from basal level (cats; 0.5 mg/kg i.v., after 30 min): +1.8 ± 9.3%
- Cardiac volume, change from basal level (cats; [3]): +6.5 ± 2.8%
- Heart rate, change from basal level (cats; [3]): −8.0 ± 3.5%
- Mean blood flow accelaration (aortic), change from basal level (cats; [3]): +8.8 ± 5.8%
- Mean blood pressure, change from basal level (cats; [3]): −2.1 ± 3.0%
- Stroke volume, change from basal level (cats; [3]): +17.0 ± 5.5 %
- Cardiac volume, change from basal level (cats; 1.0 mg/kg i.v., after 2 min): +2.2 ± 3.5%
- Heart rate, change from basal level (cats; 1.0 mg/kg i.v., after 2 min): −14.1 ± 2.1 %
- Mean blood flow accelaration (aortic), change from basal level (cats; 1.0 mg/kg i.v., after 2 min): ± 8.6 +3.8%
- Mean blood pressure, change from basal level (cats; 1.0 mg/kg i.v., after 2 min): +0.6 ± 2.7%
- Stroke volume, change from basal level (cats; 1.0 mg/kg i.v., after 2 min): +19.3 ± 4.6 %
- Cardiac volume, change from basal level (cats; 1.0 mg/kg i.v., after 5 min): +1.7 ± 6.8%
- Heart rate, change from basal level (cats; 1.0 mg/kg i.v., after 5 min): −10.6 ± 1.5 %
- Mean blood flow accelaration (aortic), change from basal level (cats; 1.0 mg/kg i.v., after 5 min): +13.6 ± 5.7%
- Mean blood pressure, change from basal level (cats; 1.0 mg/kg i.v., after 5 min): −3.8 ± 3.4%
- Stroke volume, change from basal level (cats; 1.0 mg/kg i.v., after 5 min): +13.8 ± 7.8%
- Cardiac volume, change from basal level (cats; 1.0 mg/kg i.v., after 10 min): −1.3 ± 6.8%
- Heart rate, change from basal level (cats; 1.0 mg/kg i.v., after 10 min): −7.1 ± 1.0 %
- Mean blood flow accelaration (aortic), change from basal level (cats; 1.0 mg/kg i.v., after 10 min): +9.6 ± 3.9 %
- Mean blood pressure, change from basal level (cats; 1.0 mg/kg i.v., after 10 min): −6.8 ± 2.5 %
- Stroke volume, change from basal level (cats; 1.0 mg/kg i.v., after 10 min): +5.9 ± 6.3%
- Cardiac volume, change from basal level (cats; 1.0 mg/kg i.v., after 20 min): −0.2 ± 3.8%
- Heart rate, change from basal level (cats; 1.0 mg/kg i.v., after 20 min): −4.2 ± 1.9%
- Mean blood flow accelaration (aortic), change from basal level (cats; 1.0 mg/kg i.v., after 20 min): +13.1 ± 5.0 %
- Mean blood pressure, change from basal level (cats; 1.0 mg/kg i.v., after 20 min): −1.9 ± 2.9%
- Stroke volume, change from basal level (cats; 1.0 mg/kg i.v., after 20 min): +4.4 ± 4.5%
- Cardiac volume, change from basal level (cats; 1.0 mg/kg i.v., after 30 min): −2.5 ± 5.1%
- Heart rate, change from basal level (cats; 1.0 mg/kg i.v., after 30 min): −2.3 ± 3.5%
- Mean blood flow accelaration (aortic), change from basal level (cats; 1.0 mg/kg i.v., after 30 min): +3.9 ± 2.0%
- Mean blood pressure, change from basal level (cats; 1.0 mg/kg i.v., after 30 min): −2.7 ± 2.9%
- Stroke volume, change from basal level (cats; 1.0 mg/kg i.v., after 30 min): +0.7 ± 6.7%
- Cardiac volume, change from basal level (cats; [4]): +17.6 ± 8.2%
- Heart rate, change from basal level (cats; [4]): −15.4 ± 2.7 %
- Mean blood flow accelaration (aortic), change from basal level (cats; [4]): +14.8 ± 8.8%
- Mean blood pressure, change from basal level (cats; [4]): −1.6 ± 7.3%
- Stroke volume, change from basal level (cats; [4]): +34.21 ± 0.6 %
- Adrenaline arrhythmia. Range of active doses (adrenaline arrhythmia): 0.3 to 0.7 mg/kg
- antiarrhythmic effect, in words ([1]; concious dogs with ventricular disturbances of heart rhythm, i.v.): pronounced antiarrhythmic effect
- % ectopic contractions, change vs basal level ([1]; concious dogs, after 3 min): −44.8 ± 15.0 %
- Heart rate, change vs basal level ([1]; concious dogs, after 3 min): +3.2 ± 8.4 beats/min
- % ectopic contractions, change vs basal level ([1]; concious dogs, after 5 min): −43.8 ± 13.3 %
- Heart rate, change vs basal level ([1]; concious dogs, after 5 min): −5.2 ± 9.2 beats/min
- % ectopic contractions, change vs basal level ([1]; concious dogs, after 10 min): −59.4 ± 7.8 %
- Heart rate, change vs basal level ([1]; concious dogs, after 10 min): −14.6 ± 12.0 beats/min
- % ectopic contractions, change vs basal level ([1]; concious dogs, after 20 min): −41.4 ± 8.1 %
- Heart rate, change vs basal level ([1]; concious dogs, after 20 min): −16.4 ± 6.6 & beats/min
- % ectopic contractions, change vs basal level ([1]; concious dogs, after 30 min): −24.8 ± 5.8 %
- Heart rate, change vs basal level ([1]; concious dogs, after 30 min): −5.6 ± 2.1 & beats/min
- % ectopic contractions, change vs basal level ([1]; concious dogs, after 60 min): −17.2 ± 9.1%
- Heart rate, change vs basal level ([1]; concious dogs, after 60 min): −5.2 ± 4.1 & beats/min
- duration of antiarrhythmic effect ([1]; concious dogs, 2,0 mg/kg i.v.): 50 min
- effect on heart rate, in words ([1]; concious dogs, i.v.): gradual bradycardia
- tolerability / side effects, in words ([1]; concious dogs, i.v.): no side effects
- ED50 ([2]; Rattus norvegicus, iv, concious rats, given 2 min prior calcium chloride 250-300 mg/kg i.v., read-out: Calcium chloride arrhythmia ED50 (mean effective dose)): 1 mg/kg
- effect on death from lethal ventricular fibrillation, in words ([2]; concious rats, injected 2 min prior calcium chloride): prevents the death of animals
- activity relative to lidocaine, calcium chloride arrhythmia ([2]; rats, higher than lidocaine): 7,5 folds
- activity relative to novocainamide, calcium chloride arrhythmia ([2]; rats, higher than novocainamide): 50 folds
